For nine compounds, GI50 and TGI results are on record in PubChem BioAssay (NCI).

Structures are written as SMILES.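 Five compound concentrations were applied to cells in 96-well plates for 48 hours; endpoints were derived by simple linear interpolation of the resulting dose-response curve. At the GI50, growth is halved. TGI: total growth inhibition.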

Common to all, as to assay: NCI-60 cell line screen, 48 h
Experiment [1] deals with SF-295 CNS.
Experiment [2] deals with PC-3 prostate.
Experiment [3] relates to HT29 colon.
The subject of experiment [4] is HCT-15 colon.
Experiment [5] concerns KM12 colon.
Experiment [6] has as its system HL-60(TB) leukemia.
The subject of experiment [7] is MCF7 breast.
Experiment [8] has as its system SF-268 CNS.
The test system of experiment [9] is LOX IMVI melanoma.
Experiment [10] concerns CCRF-CEM leukemia.

With `CC(C)(C)c1ccc(Oc2nccc(-c3c(-c4ccc(F)cc4)ncn3C3CCNCC3)n2)cc1`, the GI50 was 4.65 µM in [1]; 2.88 µM in experiment [2]; 1.03 µM in experiment [3]; 3.23 µM in [4]; 3.95 µM in experiment [5]; 4.64 µM in experiment [6]. The GI50 is 3.86 µM in [7], 3.34 µM in experiment [8] and 3.43 µM in experiment [9]. For the same compound, the TGI was 8.68 µM in experiment [1]; 6.19 µM in [2]; 4.17 µM in [3]; 6.68 µM in [4]; 7.61 µM in [5]; 9.1 µM in experiment [6]. In addition, the TGI in experiment [7] stood at 7.77 µM; in [8], 7.07 µM; in [9], 7.49 µM.
With `C[C@H]1[C@H](C)CC[C@]2(CO)CC[C@]3(C)C(=CC[C@@H]4[C@@]5(C)CCCNC(C)(C)[C@@H]5CC[C@]43C)[C@H]12`, the GI50 in experiment [1] was 1.64 µM; in experiment [2], 1.55 µM; in experiment [3], 0.628 µM; in [4] it was 1.37 µM; in experiment [5], 1.84 µM; in experiment [7] it was 1.58 µM. Further, the GI50 in experiment [8] was 1.79 µM; in [10], 1.74 µM; in [9] it was 1.59 µM. In addition, the TGI in experiment [1] was determined as 3.06 µM; in experiment [2] it was 2.96 µM; in [3], 1.97 µM; in experiment [4] it was 2.75 µM; in experiment [5] it was 3.51 µM; in experiment [7] it was 3.39 µM. Further, the TGI stood at 3.5 µM in [8], 3.93 µM in [10] and 3.05 µM in experiment [9].
With `O=C(O)C(/C=C/c1ccccc1)c1ccccc1` (stereo unspecified), the TGI in experiment [1] was > 100 µM; in experiment [2], > 100 µM; in experiment [3], > 100 µM; in [4] it was > 100 µM; in experiment [6], 75.1 µM; in experiment [7], > 100 µM. For the same compound, the TGI in experiment [8], in experiment [10] and in experiment [9] was > 100 µM each time.
`COc1ccc(-c2cn(-c3cc(OC)c(OC)c(OC)c3)c(SCc3ccccc3)n2)cc1OC`: the GI50 in experiment [1], in [2], in experiment [3], in experiment [4], in experiment [5] and in [6] was > 100 µM throughout. Moreover, the GI50 in [7], in experiment [8], in experiment [10] and in [9] was > 100 µM throughout. For the same compound, the TGI in experiment [1], in [2], in experiment [3], in experiment [4], in experiment [5] and in [6] was > 100 µM throughout. Moreover, the TGI in experiment [7], in [8], in experiment [10] and in experiment [9] was > 100 µM in each case.
Turning to `COc1c(C)c2c(c(O)c1C/C=C(\C)CCC(=O)O)C(=O)OC2`, the GI50 is 0.278 µM in experiment [1]; 0.61 µM in [2]; 0.248 µM in experiment [3]; 0.15 µM in [4]; 0.374 µM in experiment [5]; 0.639 µM in experiment [6]. In addition, the GI50 was 0.18 µM in [7], 0.578 µM in experiment [8], 0.0889 µM in experiment [10] and 0.132 µM in experiment [9]. In addition, the TGI in experiment [1], in experiment [2], in experiment [3], in [4], in experiment [5] and in experiment [6] was > 100 µM in each case. Also, the TGI in [7], in experiment [8], in experiment [10] and in experiment [9] was > 100 µM in each case.
In the case of `COc1cc2c(cc1C)NC(=O)/C2=C/c1ccccn1`, the GI50 is 3.46 µM in [1]; 8.73 µM in experiment [2]; 5.47 µM in [3]; 5.35 µM in experiment [6]; 3.27 µM in experiment [7]; 3.28 µM in experiment [8]. The GI50 in [10] was 0.782 µM; in experiment [9] it was 3.25 µM. The TGI is 13.3 µM in experiment [1]; > 100 µM in experiment [2]; > 100 µM in experiment [3]; > 100 µM in [6]; > 100 µM in experiment [7]; 24.6 µM in experiment [8]. Besides, the TGI was > 100 µM in experiment [10] and 10.4 µM in experiment [9].
Take `COc1ccc(-c2nc(-c3nc4ccc(OC)cc4[nH]3)c3ccccn23)cc1`: the GI50 is 3.01 µM in [2]; 3.75 µM in [3]; 3.76 µM in [4]; 3.88 µM in [5]; 2.55 µM in experiment [6]; 3.4 µM in experiment [7]. Moreover, the GI50 in experiment [8] was 4.53 µM; in experiment [10], 2.53 µM; in experiment [9], 4.8 µM. Further, the TGI is 32.2 µM in experiment [2]; > 100 µM in experiment [3]; 90.6 µM in experiment [4]; 15.8 µM in experiment [5]; 7.75 µM in experiment [6]; > 100 µM in [7]. The TGI in experiment [8] was found to be 64.3 µM; in experiment [10], 26.8 µM; in experiment [9] it was 26 µM.
`COc1cc2ccc(/C=C\[N+](=O)[O-])cc2cc1OC`: the TGI in experiment [1] was determined as 33.8 µM; in experiment [2], 7.28 µM; in experiment [3] it was 4 µM; in experiment [4], 17.2 µM; in experiment [5], 19.3 µM; in [6], 5.07 µM. Further, the TGI in experiment [7] came to 7.06 µM; in [8] it was 11 µM; in [9], 3.42 µM.
As to `COC(=O)C1(C)CCC(c2ccc(C)cc2)=C(CC(=O)O)C1` (stereo unspecified), the TGI in [1], in experiment [2], in [3], in experiment [4], in [6] and in experiment [7] was > 100 µM throughout. For the same compound, the TGI in experiment [8] and in [9] was > 100 µM throughout.
